Biological target: T1, Ubiquitin carboxyl-terminal hydrolase 30 (Homo sapiens, UniProt Q70CQ3)
T1 sequence (Q70CQ3 whole entry): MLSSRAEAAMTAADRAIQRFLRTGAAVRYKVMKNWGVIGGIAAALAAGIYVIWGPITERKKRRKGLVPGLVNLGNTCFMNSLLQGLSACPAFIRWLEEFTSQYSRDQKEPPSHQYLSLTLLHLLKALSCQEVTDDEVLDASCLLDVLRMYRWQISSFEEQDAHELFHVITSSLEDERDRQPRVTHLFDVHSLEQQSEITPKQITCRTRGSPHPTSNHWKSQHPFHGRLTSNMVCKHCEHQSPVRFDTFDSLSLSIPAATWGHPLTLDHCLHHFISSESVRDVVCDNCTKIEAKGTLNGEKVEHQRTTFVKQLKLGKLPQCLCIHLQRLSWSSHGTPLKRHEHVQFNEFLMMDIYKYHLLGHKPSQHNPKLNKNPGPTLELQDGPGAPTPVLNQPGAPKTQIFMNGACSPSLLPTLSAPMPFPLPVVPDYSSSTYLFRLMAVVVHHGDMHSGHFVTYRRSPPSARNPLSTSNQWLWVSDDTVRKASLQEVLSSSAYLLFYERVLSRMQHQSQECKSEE
Assay: Biochemical Fluorescence Intensity Kinetic Assay/Biochemical Fluorescence Intensity Assay
Protocol: Buffer was optimised for optimal temperature, pH, reducing agent, salts, time of incubation, and detergent. […] Reactions were incubated at room temperature and read every 2 min for 120 min. Readings were performed on a Pherastar Plus (BMG Labtech). […] A typical 8-point dilution series would be 100, 30, 10, 3, 1, 0.3, 0.1, 0.03 μM final. […] Either 1 μl of 50% DMSO or diluted compound was added to the plate. USP30 was diluted in reaction buffer (40 mM Tris, pH 7.5, 0.005% Tween 20, 0.5 mg/ml BSA, 5 mM beta-mercaptoethanol) to the equivalent of 0.001 μl/well and 10 μl of diluted USP30 was added to the compound. Enzyme and compound were incubated for 30 min at room temp. […] Reactions were read immediately after addition of substrate and following a 2 h incubation at room temperature.

CO[C@@H]1CN(C#N)C[C@H]1N(C)C(=O)c1ccc(-c2cnn(C)c2)cc1 [US10689345, Example 178]
IC50: in the range around 550 nM
